According to patent US5103018A, “Mitomycin derivatives” (Kyowa Hakko Kogyo Kabushiki Kaisha, priority 1986, dated 1992):
Values after ≈ are worked out from the molar mass of the structure shown. Like-named read-outs stand apart in the source and are kept apart here.

Columns and labels:
[1] = Acute toxicity; assay type: in vivo, mice (ddy); conditions: mouse, in vivo, ip; for LD50 at 336 h: ddy mice, single i.p., 14 days, Behren Korber's method; for selectivity ratio: read-out: (C.I.)* = (LD50/ED50)/[(LD50/ED50) of MMC1]
Experimental: (§1) Certain compounds were selected from Compounds I. The following Table 4 indicates anti-tumour activity against Sarcoma 180 solid tumour (ED50), acute toxicity (LD50) and effects on the peripheral leucocytes (WBC4000) of each compound.
Each animal of the test group consisting of 5 ddy mice was once administered (i.p.) with a test compound. […] The LD50 was determined by Behren Korber's method.

[2] = in vivo; assay type: in vivo, mice (ddy strain); conditions: mouse, in vivo, ip; read-out: (WBC4000/ED50)* = (WBC4000/ED50)/[(WBC4000/ED50) of MMC1]
Experimental: as §1
(4) Effect upon the number of the peripheral leucocytes:
Sarcoma 180 solid tumour cells (5×10^6) were subcutaneously implanted into the right armpit of each mouse (body weight 20±2 g) of a group consisting of 5 male mice (ddy strain). 24 hours after implantation,a test compound was abdominally administered to each mouse. 4 days later, blood (each 0.02 ml) was collected from the suborbital plexus vein of each tumour-carrying mouse. The collected sample of blood was dispersed in 9.98 ml of Cell-kit Seven solution. One drop of saponin solution was added to the sample to dissolve erythrocytes and then a microcell counter was used to measure the number of leucocytes. On graph paper, the number of leucocytes was indicated on the y-axis by an arithmetic scale and the does of the test compound was indicated on the x-axis by a logarithmic scale.
The relationship between the number of peripheral leucocytes and the dosage of the test compound was plotted to obtain WBC4000 viz. the dosage corresponding to […] per mm^3 (about half of the number of leucocytes of normal mice).

[3] = test system: Klebsiella pneumoniae ATCC 10031; experiment: microbe, parasite or virus in culture; assay type: cell-based; conditions: ATCC10031, pH 7, read-out: minimum inhibitory concentration, KP
Excerpt: Certain Compounds I were selected. […] In this table, the microorganisms used are abbreviated as follows:
KP: Klebsiella pneumoniae ATCC 10031

[4] = test system: Streptococcus faecalis ATCC 10541; experiment: Minimum inhibitory concentration, agar dilution method, SF; assay type: cell-based; conditions: Enterococcus faecalis
Excerpt: (§2) Certain Compounds I were selected. Table 3 indicates their anti-bacterial activities in terms of their minimum inhibitory concentration (μg/ml), determined by the agar dilution method effected at a pH of 7.0. In this table, the microorganisms used are abbreviated as follows:
SF: Streptococcus faecalis ATCC 10541

[5] = test system: Sarcoma 180 solid tumour; experiment: animal or person; assay type: in vivo, mice (ddy strain); conditions: Mus musculus, Sarcoma-180, ip, 168 h, read-out: ED50 ip
Excerpt: as §1
(1) Effect against Sarcoma 180 solid tumour:
5×10^6 cells of Sarcoma 180 solid tumour cells were abdominally implanted into male mice of ddy strain. 7 days after this, ascites cells were sampled. The cells were washed once with a sterilized physiological solution of sodium chloride and were used to prepare a cell suspension containing 5×10^7 cells per ml. On each occasion, 0.1 ml of the cell suspension was subcutaneously implanted into the right armpit of a male mouse (ddy strain; body weight 20±2 g). 24 hours after the implantation of the tumour cells, the test compound which was dissolved in a physiological solution of sodium chloride with or without addition of Tween 80 was abdominally administered to each mouse of a group consisting of 5 animals at a does of 0.1-0.2 ml. The anti-tumour activity was determined as follows:
7 days after the implantation, the major axis (a) and the minor axis (b) of the tumour were measured to calculate a value of "a×b^2 /2" which corresponds to the volume of the tumour. The anti-tumour activity was expressed by T/C viz. the ratio of the volume of the tumours (T) of the group of animals administered with the test compound to the corresponding volume of tumours (C) of the untreated animals.
(2) Determination of ED50 :
The term ED50 denotes the administered amount needed for reducing the volume of Sarcoma 180 solid tumours in the animals to 50% on the basis of the corresponding volume of Sarcoma 180 solid tumours in control (untreated) animals.
On graph paper, T/C was indicated by an arithmetic scale on the longitudinal axis and the administered amount of test compound was indicated by a logarithmic scale on the lateral axis.

[6] = test system: Proteus vulgaris ATCC 6897; experiment: Minimum inhibitory concentration, agar dilution method, PV; assay type: cell-based
Excerpt: as §2
PV: Proteus vulgaris ATCC 6897

[7] = test system: Staphylococcus aureus ATCC 6583P; experiment: Minimum inhibitory concentration, agar dilution method, SA; assay type: cell-based; conditions: ATCC6583P
Excerpt: as §2
SA: Staphylococcus aureus ATCC 6583P

[8] = test system: P388 Leukemia; experiment: Effect upon Leukemia P 388; assay type: in vivo, mouse (CDF1); conditions: single i.p., 33 days
Experimental: (5) Effect upon Leukemia P 388:
Ascites cells were collected from P388 Leukemia-carrying mouse (DBA/2) 7 days after the implantation. The number of the cells of P388 Leukemia in the sample was counted. A physiological solution of sodium chloride was sterilized and used to prepare a cell suspension containing 5×10^6 tumour cells per ml. On each occasion, 0.2 ml of the suspension containing 1×10^6 cells was implanted into the abdominal cavity of each mouse (CDF1; body weight 20~25 g). 24 hours after implantation, the test compound was once given to each mouse of a test group consisting of 6 mice by abdominal injection.
The activity of the test samples was determined by the ratio of the average survival days of the treated animals to the average survival days of untreated animals viz. ILS % (Increased Life Span).

[9] = test system: Escherichia coli ATCC 26; experiment: Minimum inhibitory concentration, agar dilution method, EC; assay type: cell-based
Excerpt: as §2
EC: Escherichia coli ATCC 26

[10] = ATCC10541, pH 7, read-out: minimum inhibitory concentration, SF
[11] = Proteus vulgaris, ATCC6897, pH 7, read-out: minimum inhibitory concentration, PV
[12] = Staphylococcus aureus, pH 7, read-out: minimum inhibitory concentration, SA

Row | SMILES | LD50 at 336 h [1] | selectivity ratio [1] | selectivity ratio [2] | MIC [3] | MIC [4, 10] | ED50 [5] | MIC [6, 11] | MIC [7, 12] | ILS* (ratio of ILS % to that of mitomycin C) ([8]; dose 25 mg/kg) | ILS* (ratio of ILS % to that of mitomycin C) ([8]; dose 3.13 mg/kg) | MIC ([9]; Escherichia coli, ATCC26, pH 7, read-out: minimum inhibitory concentration, EC) | ILS* (ratio of ILS % to that of mitomycin C) ([8]; dose 50 mg/kg) | MIC ([9]; ATCC26, agar dilution method, pH 7.0, Escherichia coli, read-out: minimum inhibitory concentration, EC) | MIC ([4]; ATCC10541, agar dilution method, pH 7.0, Streptococcus faecalis, read-out: minimum inhibitory concentration, SF) | MIC ([6]; ATCC6897, agar dilution method, pH 7.0, Proteus vulgaris, read-out: minimum inhibitory concentration, PV) | MIC ([7]; agar dilution method, pH 7.0, Staphylococcus aureus, read-out: minimum inhibitory concentration, SA)
1 | CO[C@@]12[C@H](COC(N)=O)C3=C(C(=O)C(C)=C(NCCSSCCNC(=O)/C=C(C)/C=C/C=C(C)/C=C/C4=C(C)CCCC4(C)C)C3=O)N1C[C@@H]1N[C@@H]12 [Compound 15] | 16.9 mg/kg | 0.82 | 3 | 2.5 µg/mL (≈ 3.32 µM) | 0.63 µg/mL (≈ 0.838 µM) | 7.4 mg/kg | 1.3 µg/mL (≈ 1.73 µM) | 0.078 µg/mL (≈ 0.104 µM) | – | – | – | – | – | – | – | –
2 | CC(=O)NCCSSCCNC1=C(C)C(=O)C2=C(C1=O)[C@H](COC(N)=O)[C@@]1(O)[C@@H]3[C@H](CN21)N3C (some centres unmarked) [Compound 17, 7-N-[2-[(2-acetamidoethyl)dithio]ethyl]mitomycin D] | 60 mg/kg | 2.73 | 2.6 | – | 25 µg/mL (≈ 48.9 µM) | 7.3 mg/kg | > 50 µg/mL | > 50 µg/mL | > 1.78 | – | – | – | – | – | – | –
3 | CO[C@@]12[C@H](COC(N)=O)C3=C(C(=O)C(C)=C(NCCSSCCC(N)=O)C3=O)N1C[C@@H]1N[C@@H]12 [Compound 21, 7-N-[2-[(2-carbamoylethyl)dithio]ethyl]mitomycin C] | 18.8 mg/kg | 0.68 | 1.01 | 1.3 µg/mL (≈ 2.61 µM) | 1.3 µg/mL (≈ 2.61 µM) | 11.8 mg/kg | 5 µg/mL (≈ 10 µM) | 0.63 µg/mL (≈ 1.27 µM) | – | – | – | – | – | – | – | –
4 | CO[C@@]12[C@H](COC(N)=O)C3=C(C(=O)C(C)=C(NCCSSCCC(=O)NC[C@H](O)c4ccc(O)c(O)c4)C3=O)N1C[C@@H]1N[C@@H]12 [Compound 32] | 30 mg/kg | 1.56 | 2.39 | – | – | 7.1 mg/kg | – | – | – | > 1.44 | – | – | – | – | – | –
5 | CO[C@@]12[C@H](COC(N)=O)C3=C(C(=O)C(C)=C(NCCSSCCSC(C)=O)C3=O)N1C[C@@H]1N[C@@H]12 [Compound 33, 7-N-[2-[[2-(acetylthio)ethyl]dithio]ethyl]mitomycin C] | 4.7 mg/kg | 0.36 | 1.27 | 0.63 µg/mL (≈ 1.19 µM) | 0.039 µg/mL (≈ 0.0738 µM) | 5.6 mg/kg | 0.63 µg/mL (≈ 1.19 µM) | 0.078 µg/mL (≈ 0.148 µM) | – | – | > 40 µg/mL | – | – | – | – | –
6 | CO[C@@]12[C@H](COC(N)=O)C3=C(C(=O)C(C)=C(NCCSSCc4cn([C@H]5C[C@H](O)[C@@H](CO)O5)c(=O)[nH]c4=O)C3=O)N1C[C@@H]1N[C@@H]12 [Compound 39, 7-N-[2-[[(2'-deoxyuridin-5-yl)methyl]dithio]ethyl]mitomycin C] | 75 mg/kg | 1.37 | 1.5 | – | – | 34.7 mg/kg | – | – | – | – | – | 1.83 | – | – | – | –
7 | CO[C@@]12[C@H](COC(N)=O)C3=C(C(=O)C(C)=C(N)C3=O)N1C[C@@H]1N[C@@H]12 [MM-C, mitomycin C, reference compound] | – | – | – | – | – | – | – | – | – | – | – | – | 10 µg/mL (≈ 29.9 µM) | 0.08 µg/mL (≈ 0.239 µM) | 0.02 µg/mL (≈ 0.0598 µM) | 0.04 µg/mL (≈ 0.12 µM)
